Data published in US20210278408A1, “METHODS OF TREATMENT OF CANCER WITH SUBSTITUTED PYRROLE AND PYRAZOLE COMPOUNDS AND DIAGNOSIS OF CANCERS SUSCEPTIBLE TO TREATMENT WITH SUBSTITUTED PYRROLE AND PYRAZOLE COMPOUNDS” (Bantam Pharmaceutical, LLC, priority 2018, published 2021).
Where two headings read alike, the source gives them in different places.

System: 407 cancer cell lines
Experiment: Cell viability of cancer cell lines (IC50), CellTiter-Glo Viability Assay, 96 h
Format: cell-based
Conditions: for IC50: read-out: Absolute IC50
Procedure: Viability was determined by using the 50% inhibitory concentration (IC50) as determined with the CellTiter-Glo® Viability Assay (Promega).
Experiments were initiated by first thawing and equilibrating the CellTiter-Glo® Buffer to room temperature. The lyophilized CellTiter-Glo® Substrate was also equilibrated to room temperature. The lyophilized substrate was reconstituted with the CellTiter-Glo® buffer to form the CellTiter-Glo® Reagent.
Cells were harvested during the logarithmic growth period, counted, and the cell concentration adjusted to 4.44×10^4 cells/mL using culture medium.
Cells were allowed to grow overnight and the following day, the TO reading was obtained by adding 10 μL culture medium to each well of Plate A. The plate was allowed to equilibrate at room temperature for thirty minutes, after which 50 μL CellTiter-Glo® reagent was added to each well. The contents were mixed for 5 min on an orbital shaker to induce cell lysis. Plates were incubated for 20 minutes to stabilize the luminescent signal and the TO luminescence recorded.
Test plate B was incubated for 96 h in the humidified incubator at 37° C. with 5% CO2.
Following the incubation, the plate was equilibrated at room temperature for thirty minutes. CellTiter-Glo® (50 μL) was added to each well of the plate and contents mixed for five minutes on an orbital shaker to induce cell lysis. The luminescent signal was allowed to stabilize at room temperature for 20 minutes and the luminescence recorded.
IC50 (EC50) was calculated using a dose-response curve, fitted using a nonlinear regression model with a sigmoidal dose response. Survival rate was calculated using the formula:
The Surviving rate (%)=(LumTest article−LumMedium control)/(LumNon-treated−LumMedium control)×100%.
Absolute IC50 (EC50) was calculated according to the dose-response curve generated by the statistical software (GraphPad Prism 5.0).

Cc1nn(-c2nc(-c3ccc(C(F)(F)F)cc3)c(SC(C)C)s2)c(C(=O)O)c1-c1cccc(F)c1 [Compound A197, 4-(3-fluorophenyl)-1-(5-(isopropylthio)-4-(4-(trifluoromethyl)phenyl)thiazol-2-yl)-3-methyl-1H-pyrazole-5-carboxylic acid]
% inhibition at top conc. (22Rv1 cells, 96 h): 68.15% | % inhibition at top conc. (5637 cells, 96 h): 68.06% | IC50 (96 h, 5637 cells, 96 h): 0.49 µM | IC50 (96 h, A3/KAW cells, 96 h): 0.29 µM | IC50 (96 h, ASH-3 cells, 96 h): > 30 µM | IC50 (96 h, C4-2, 96 h): > 30 µM | IC50 (96 h, CCK-81 cells, 96 h): 0.32 µM | IC50 (96 h, COV644 cells, 96 h): > 30 µM | IC50 (96 h, H4 cells, 96 h): 0.73 µM | IC50 (96 h, HCC 94 cells, 96 h): 0.82 µM | IC50 (96 h, HM-7, 96 h): > 30 µM | IC50 (96 h, IHH-4 cells, 96 h): 0.9 µM | IC50 (96 h, IM95m cells, 96 h): 0.78 µM | IC50 (96 h, JHH-5 cells, 96 h): > 30 µM | IC50 (96 h, M059K cells, 96 h): 1.66 µM | IC50 (96 h, MC/CAR cells, 96 h): 3.28 µM | IC50 (96 h, NAMALWA cells, 96 h): 0.51 µM | IC50 (96 h, OCUM-2D cells, 96 h): 1.15 µM | IC50 (96 h, OCUM-2M cells, 96 h): 0.83 µM | IC50 (96 h, RBE cells, 96 h): 0.84 µM | IC50 (96 h, SCH cells, 96 h): > 30 µM | IC50 (96 h, SNU-719 cells, 96 h): > 30 µM | IC50 (96 h, SNU-761 cells, 96 h): 1.11 µM | IC50 (96 h, SNU-2535 cells, 96 h): 0.75 µM | IC50 (96 h, SNU-C5 cells, 96 h): > 30 µM | IC50 (96 h, SW 156 cells, 96 h): 2.39 µM | IC50 (96 h, T.Tn cells, 96 h): 0.84 µM | IC50 (96 h, TJ905 cells, 96 h): > 30 µM | IC50 (96 h, YCC-1 cells, 96 h): > 30 µM | IC50 (96 h, YCC-2 cells, 96 h): > 30 µM | IC50 (96 h, YCC-6 cells, 96 h): 0.54 µM | IC50 (96 h, YCC-10, 96 h): > 30 µM | IC50 (A875, 96 h, A875 cells, 96 h): > 30 µM | % inhibition at top conc. (A875 cells, 96 h): 10.68% | % inhibition at top conc. (A2058, 96 h): 29.09% | % inhibition at top conc. (A2780 cells, 96 h): 69.48% | IC50 (A2780cis, 96 h, A2780cis cells, 96 h): 0.54 µM | % inhibition at top conc. (A-204 cells, 96 h): 37.77% | % inhibition at top conc. (A-375, 96 h): 52.11% | % inhibition at top conc. (A-431, 96 h): 66.83% | % inhibition at top conc. (AGS cells, 96 h): 28.18% | % inhibition at top conc. (AN3 CA, 96 h): 35.67% | % inhibition at top conc. (AsPC-1 cells, 96 h): 34.71% | % inhibition at top conc. (C4-2, 96 h): 45.07% | % inhibition at top conc. (C666-1 cells, 96 h): 36.20% | IC50 (CADO-ES1, CADO-ES1): 0.21 µM | % inhibition at top conc. (CAMA-1, 96 h): 54.72% | % inhibition at top conc. (COLO 205, 96 h): 60.57% | % inhibition at top conc. (COLO 320DM, 96 h): 72.92% | % inhibition at top conc. (COV644 cells, 96 h): 31.57% | % inhibition at top conc. (Calu-3, 96 h): 65.15% | IC50 (CoC1, 96 h, CoC1/DDP cells, 96 h): > 30 µM | IC50 (CoC1, 96 h, CoC1 cells, 96 h): 1.32 µM | % inhibition at top conc. (DMS 53 cells, 96 h): 85.18% | % inhibition at top conc. (DOHH-2 cells, 96 h): 99.99% | % inhibition at top conc. (DU 145, 96 h): 66.37% | % inhibition at top conc. (EBC-1, 96 h): 42.21% | % inhibition at top conc. (EFM-192A, 96 h): 49.39% | IC50 (EFM-192A, 96 h, EFM-192A, 96 h): 0.52 µM | % inhibition at top conc. (ES-2 cells, 96 h): 44.22% | % inhibition at top conc. (FaDu, 96 h): 62.82% | % inhibition at top conc. (GTL-16 cells, 96 h): 54.64% | IC50 (HBL1, HBL-1): 0.71 µM | % inhibition at top conc. (HCC827 cells, 96 h): 63.74% | IC50 (HCC1500, HCC1500): > 30 µM | % inhibition at top conc. (HCC2218, 96 h): 33.43% | % inhibition at top conc. (HCC4006, 96 h): 60.70% | IC50 (HCCC9810, HCCC-9810): > 30 µM | % inhibition at top conc. (HCCLM3 cells, 96 h): 29.79% | % inhibition at top conc. (HGC-27 cells, 96 h): 90.57% | IC50 (HLF, 96 h, HLF cells, 96 h): > 30 µM | % inhibition at top conc. (HM-7, 96 h): 43.55% | % inhibition at top conc. (HT-1080, 96 h): 68.42% | % inhibition at top conc. (Hep G2/C3A, 96 h): 23.83% | IC50 (HepG2/C3A, 96 h, Hep G2/C3A, 96 h): > 30 µM | IC50 (Homo sapiens, 22Rv1, 96 h, 22Rv1 cells, 96 h): 0.43 µM | IC50 (Homo sapiens, 769-P, 96 h, 769-P cells, 96 h): 1.04 µM | IC50 (Homo sapiens, 786-0, 96 h, 786-O cells, 96 h): 1.15 µM | IC50 (Homo sapiens, 8505C): > 30 µM | IC50 (Homo sapiens, A 172, 96 h, A-172 cells, 96 h): > 30 µM | IC50 (Homo sapiens, A204, 96 h, A-204 cells, 96 h): > 30 µM | IC50 (Homo sapiens, A253, 96 h, A253 cells, 96 h): > 30 µM | IC50 (Homo sapiens, A498, 96 h, A498 cells, 96 h): 0.86 µM | IC50 (Homo sapiens, A549, 96 h, A549 cells, 96 h): 1.04 µM | IC50 (Homo sapiens, A673, 96 h, A-673 cells, 96 h): 0.68 µM | IC50 (Homo sapiens, A2058, 96 h): > 30 µM | IC50 (Homo sapiens, A2780, 96 h, A2780 cells, 96 h): 0.4 µM | IC50 (Homo sapiens, A-375, 96 h): > 30 µM | IC50 (Homo sapiens, A-427, 96 h, A-427 cells, 96 h): > 30 µM | IC50 (Homo sapiens, A-431, 96 h): 1.15 µM | IC50 (Homo sapiens, ACHN, 96 h, ACHN cells, 96 h): 0.79 µM | IC50 (Homo sapiens, AGS, 96 h, AGS cells, 96 h): > 30 µM | IC50 (Homo sapiens, AMO1, 96 h, AMO-1 cells, 96 h): 1.48 µM | IC50 (Homo sapiens, AN3-CA, 96 h, AN3 CA, 96 h): > 30 µM | IC50 (Homo sapiens, ARH-77, ARH-77): > 30 µM | IC50 (Homo sapiens, ASPC1, 96 h, AsPC-1 cells, 96 h): > 30 µM | IC50 (Homo sapiens, AU565, AU565): 10.1 µM | IC50 (Homo sapiens, BT-20, 96 h, BT-20 cells, 96 h): > 30 µM | IC50 (Homo sapiens, BT-474, 96 h, BT474 cells, 96 h): > 30 µM | IC50 (Homo sapiens, BT-483, BT-483): > 30 µM | IC50 (Homo sapiens, BT-549, 96 h, BT-549 cells, 96 h): 0.45 µM | IC50 (Homo sapiens, BXPC-3, BxPC-3): 0.54 µM | IC50 (Homo sapiens, C6661, 96 h, C666-1 cells, 96 h): > 30 µM | IC50 (Homo sapiens, C-33-A, 96 h, C-33 A cells, 96 h): > 30 µM | IC50 (Homo sapiens, CA46, 96 h, CA46 cells, 96 h): 0.6 µM | IC50 (Homo sapiens, CAKI-2, Caki-2): > 30 µM | IC50 (Homo sapiens, CAL-27, 96 h, CAL-27 cells, 96 h): 3.95 µM | IC50 (Homo sapiens, CAL-51, CAL-51): 1.68 µM | IC50 (Homo sapiens, CAL-120, CAL-120): > 30 µM | IC50 (Homo sapiens, CAMA-1, 96 h): 0.69 µM | IC50 (Homo sapiens, CAPAN-1, Capan-1): > 30 µM | IC50 (Homo sapiens, CCRF-CEM): 0.58 µM | IC50 (Homo sapiens, CFPAC-1, CFPAC-1): > 30 µM | IC50 (Homo sapiens, COLO 205, 96 h): 1.14 µM | IC50 (Homo sapiens, COLO 320DM, 96 h, COLO 320DM, 96 h): 0.49 µM | IC50 (Homo sapiens, Ca-Ski, 96 h, Ca Ski cells, 96 h): > 30 µM | IC50 (Homo sapiens, Caco-2, 96 h, Caco-2 cells, 96 h): > 30 µM | IC50 (Homo sapiens, Calu-1, Calu-1): 1.04 µM | IC50 (Homo sapiens, Calu-3, 96 h): 1.75 µM | IC50 (Homo sapiens, Calu-6, Calu-6): > 30 µM | IC50 (Homo sapiens, Caov-3, 96 h, Caov-3 cells, 96 h): > 30 µM | IC50 (Homo sapiens, Capan-2, Capan-2): > 30 µM | IC50 (Homo sapiens, DLD-1, DLD-1): 0.42 µM | IC50 (Homo sapiens, DMS-53, 96 h, DMS 53 cells, 96 h): 1.07 µM
